Assay results from patent US5705487A, “Antithrombotic agents” (priority 1995, dated 1998).
Structures can show the parent of a compound that is named as a salt.

Columns and labels:
Format in all cases: biochemical
t-PA = molecular target: T1, t-PA (Homo sapiens, UniProt P00750); test: Kass, t-PA chromogenic substrate assay; settings: substrate H-D-Ile-Pro-Arg-p-nitroanilide
T1 construct: purchased American Diagnostica, Greenwich, Conn

Human plasmin = molecular target: T2, Human plasmin (Homo sapiens, UniProt P00747); test: Kass, plasmin chromogenic substrate assay; settings: substrate H-D-Val-Leu-Lys-p-nitroanilide
T2 construct: Human plasmin is purchased from Boehringer Mannheim; purchased Boehringer Mannheim, Indianapolis, Ind

Human Thrombin = Human Thrombin (Homo sapiens, UniProt P00734); test: Inhibition of the amidase activity of thrombin (Kass); settings: chromogenic substrate N-benzoyl-Phe-Val-Arg-p-nitroanilide; mean over range of concentrations
Bovine trypsin = molecular target: T3, Bovine trypsin (Bos taurus, UniProt P00760); test: Kass, trypsin chromogenic substrate assay; settings: substrate N-Benzoyl-Phe-Val-Arg-p-nitroanilide
T3 construct: Bovine trypsin is purchased from Worthington Biochemicals; purchased Worthington Biochemicals, Freehold, N.J
T3 sequence (P00760 24-246): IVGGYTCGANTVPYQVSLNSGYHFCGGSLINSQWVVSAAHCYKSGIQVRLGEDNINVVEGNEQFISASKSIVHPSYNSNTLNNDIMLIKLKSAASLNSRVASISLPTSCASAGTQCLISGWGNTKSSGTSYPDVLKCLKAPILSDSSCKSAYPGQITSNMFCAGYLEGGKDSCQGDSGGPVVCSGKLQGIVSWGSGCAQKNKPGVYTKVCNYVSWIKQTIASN

Human Plasma [1] = test: Human plasma anticoagulation, activated partial thromboplastin time (APTT); settings: concentration required to double the clotting time
Procedure: (§1) Dog plasma and rat plasma is obtained from conscious mixed-breed hounds (either sex, Hazelton-LRE, Kalamazoo, Mich., U.S.A.) or from anesthetized male Sprague-Dawley rats (Harlan Sprague-Dawley, Inc., Indianapolis, Ind., U.S.A.) by venipuncture into 3.8 percent citrate. Fibrinogen is prepared from in-date ACD human blood as the fraction I-2 according to previous procedures and specifications. […] Human fibrinogen is also purchased as 98 percent pure/plasmin free from American Diagnostica, Greenwich, Conn. Coagulation reagents ACTIN, Thromboplastin, and Human plasma are from Baxter Healthcare Corp., Dade Division, Miami, Fla. Bovine thrombin from Parke-Davis ([…], Mich.) is used for coagulation assays in plasma.
(§2) Coagulation assay procedures are as previously described. […] A CoAScreener coagulation instrument (American LABor, Inc.) is used for all coagulation assay measurements. The prothrombin time (PT) is measured by adding 0.05 mL saline and 0.05 mL Thromboplastin-C reagent to 0.05 mL test plasma. The activated partial thromboplastin time (APTT) is measured by incubation of 0.05 mL test plasma with 0.05 mL Actin reagent for 120 seconds followed by 0.05 mL CaCl2 (0.02M). The thrombin time (TT) is measured by adding 0.05 mL saline and 0.05 mL thrombin (10 NIH units/mL) to 0.05 mL test plasma. The compounds of Formula I are added to human or animal plasma over a wide range of concentrations to determine prolongation effects on the APTT, PT, and TT assays. Linear extrapolations are performed to estimate the concentrations required to double the clotting time for each assay.

Human Plasma [2] = test: Human plasma anticoagulation, prothrombin time (PT); settings: concentration required to double the clotting time
Procedure: as §1, §2

factor Xa = molecular target: T4, factor Xa (Homo sapiens, UniProt P00742); test: Kass, factor Xa chromogenic substrate assay; settings: substrate N-Benzoyl-Ile-Glu-Gly-Arg-p-nitroanilide
T4 construct: Human factors X, Xa, IXa, XIa, and XIIa are purchased; purchased Enzyme Research Laboratories, South Bend, Ind

Human Plasma [3] = test: Human plasma anticoagulation, thrombin time (TT); settings: concentration required to double the clotting time
Procedure: as §1, §2

T2 sequence (P00747 581-810 limits assumed): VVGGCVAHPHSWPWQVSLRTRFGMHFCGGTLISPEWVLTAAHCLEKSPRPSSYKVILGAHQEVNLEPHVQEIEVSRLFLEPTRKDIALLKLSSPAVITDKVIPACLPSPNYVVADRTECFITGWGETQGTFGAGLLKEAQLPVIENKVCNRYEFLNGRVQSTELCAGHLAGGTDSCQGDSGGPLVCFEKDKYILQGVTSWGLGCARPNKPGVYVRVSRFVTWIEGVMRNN
T2 sequence (P00747 97-580 partner limits assumed): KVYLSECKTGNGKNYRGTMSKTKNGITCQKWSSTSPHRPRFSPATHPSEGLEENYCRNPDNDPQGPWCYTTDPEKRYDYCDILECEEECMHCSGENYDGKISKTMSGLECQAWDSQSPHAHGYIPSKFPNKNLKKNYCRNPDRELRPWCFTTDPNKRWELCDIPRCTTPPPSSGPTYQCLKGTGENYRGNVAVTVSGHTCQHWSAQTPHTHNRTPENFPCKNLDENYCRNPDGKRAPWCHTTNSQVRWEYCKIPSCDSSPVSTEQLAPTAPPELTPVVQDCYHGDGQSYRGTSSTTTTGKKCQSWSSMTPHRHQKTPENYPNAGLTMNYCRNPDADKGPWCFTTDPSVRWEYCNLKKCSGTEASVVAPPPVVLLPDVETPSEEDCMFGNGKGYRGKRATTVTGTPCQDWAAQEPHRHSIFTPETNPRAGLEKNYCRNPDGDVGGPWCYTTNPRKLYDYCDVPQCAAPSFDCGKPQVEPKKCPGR
T4 sequence (P00742 235-488 limits assumed): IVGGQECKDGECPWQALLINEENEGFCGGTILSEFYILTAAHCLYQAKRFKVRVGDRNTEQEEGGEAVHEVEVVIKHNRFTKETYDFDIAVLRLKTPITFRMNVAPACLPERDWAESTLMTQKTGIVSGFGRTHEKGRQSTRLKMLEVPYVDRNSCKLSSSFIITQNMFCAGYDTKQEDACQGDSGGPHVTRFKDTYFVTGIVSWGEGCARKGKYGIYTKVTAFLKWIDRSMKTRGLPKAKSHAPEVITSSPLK
T4 sequence (P00742 41-179 partner limits assumed): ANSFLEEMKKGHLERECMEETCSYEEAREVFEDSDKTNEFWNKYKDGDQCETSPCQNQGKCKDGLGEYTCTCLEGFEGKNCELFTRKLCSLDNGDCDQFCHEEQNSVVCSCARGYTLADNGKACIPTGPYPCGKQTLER
T1 sequence (P00750 36-562): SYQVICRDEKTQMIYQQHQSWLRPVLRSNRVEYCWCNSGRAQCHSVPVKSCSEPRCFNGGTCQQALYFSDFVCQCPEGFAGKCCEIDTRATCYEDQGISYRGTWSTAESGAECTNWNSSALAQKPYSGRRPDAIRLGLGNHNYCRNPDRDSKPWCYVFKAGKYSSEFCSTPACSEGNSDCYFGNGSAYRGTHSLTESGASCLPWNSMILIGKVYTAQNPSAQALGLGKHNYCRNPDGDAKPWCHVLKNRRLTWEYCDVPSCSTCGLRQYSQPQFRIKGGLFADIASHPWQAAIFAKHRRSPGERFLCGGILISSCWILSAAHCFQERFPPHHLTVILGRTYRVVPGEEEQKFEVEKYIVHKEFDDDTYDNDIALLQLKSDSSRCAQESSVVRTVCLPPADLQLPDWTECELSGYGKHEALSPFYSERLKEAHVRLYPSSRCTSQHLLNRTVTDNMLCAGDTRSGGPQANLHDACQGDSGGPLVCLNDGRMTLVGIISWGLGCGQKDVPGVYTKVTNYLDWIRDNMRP

Row | Kass × 10^6 (L/mole) t-PA (t-PA) | Kass × 10^6 (L/mole) Plasmin (Human plasmin) | Kass × 10^6 (L/mole) Human Thrombin (Human Thrombin) | Kass × 10^6 (L/mole) Trypsin (Bovine trypsin) | Kass × 10^6 (L/mole) Xa (factor Xa) | Compound | Human Plasma Anticoagulation 2x Clotting time APTT (Human Plasma [1]) | Human Plasma Anticoagulation 2x Clotting time PT (Human Plasma [2]) | Human Plasma Anticoagulation 2x Clotting time TT (Human Plasma [3])
1 | 0.01 × 10^6 L/mole | 0.01 × 10^6 L/mole | 13. × 10^6 L/mole | 0.21 × 10^6 L/mole | 0.01 × 10^6 L/mole | CCS(=O)(=O)N[C@H](Cc1ccccc1)C(=O)N1CCC[C@H]1C(=O)NCCc1ccc(C(=N)N)cc1 [Example 26, EtSO2 -D-Phe-Pro-p-NHCH2 CH2 -C6 H4 C(=NH)NH2.HCl] | 870 ng/mL | 750 ng/mL | 37 ng/mL
2 | < 0.001 × 10^6 L/mole | < 0.001 × 10^6 L/mole | 0.09 × 10^6 L/mole | 0.04 × 10^6 L/mole | < 0.001 × 10^6 L/mole | EtSO2 -D-Phe-Pro-p-NHCH2 CH2 C6 H4 CNH(NH)NH2.HCl [Example 35] | 50,400 ng/mL | 78,400 ng/mL | 4,500 ng/mL
3 | < 0.001 × 10^6 L/mole | < 0.001 × 10^6 L/mole | 0.04 × 10^6 L/mole | 0.02 × 10^6 L/mole | 0.04 × 10^6 L/mole | N=C(N)c1cccc(CCCNC(=O)[C@@H]2CCCN2C(=O)[C@@H]2NCC[C@@H]3CCCC[C@@H]32)c1 [Example 33, 1-Piq-Pro-m-NHCH2 CH2 CH2 -C6 H4 C(=NH)NH2.HCl] | 59,300 ng/mL | 70,900 ng/mL | 18,900 ng/mL
4 | 0.008 × 10^6 L/mole | 0.004 × 10^6 L/mole | 63 × 10^6 L/mole | 1.0 × 10^6 L/mole | 0.03 × 10^6 L/mole | N=C(N)NCCCCNC(=O)[C@@H]1CCCN1C(=O)[C@@H]1NCC[C@H]2CCCC[C@H]21 [Example 61, N-[4-[(aminoiminomethyl)amino]butyl]-1-[[(4aR,8aR)-decahydro-1(R)-isoquinolinyl]carbonyl]-1-prolinamide trihydrochloride] | 679 ng/mL | 756 ng/mL | 45 ng/mL
5 | < 0.001 × 10^6 L/mole | < 0.001 × 10^6 L/mole | 0.60 × 10^6 L/mole | 0.40 × 10^6 L/mole | < 0.001 × 10^6 L/mole | Cl.O=C(O)CN[C@H](CC1CCCCC1)C(=O)N1CCC[C@H]1C(=O)NCC1=CCNCC1 [Example 58, HO2 CCH2 -D-Cha-Pro-4-NHCH2 -3,4-dehydropiperidine.HCl] | 14,300 ng/mL | 11,400 ng/mL | 710 ng/mL
6 | 0.04 × 10^6 L/mole | 0.84 × 10^6 L/mole | 400 × 10^6 L/mole | 940. × 10^6 L/mole | 3.4 × 10^6 L/mole | Cl.N=C(N)c1ccc(CNC(=O)[C@@H]2C[C@@H]3CCCC[C@@H]3N2C(=O)[C@@H](CC2CCCCC2)NCC(=O)O)cc1 (relative stereo) [Example 49, HOOCCH2 -D-Cha-cis-Ohi-p-NHCH2 C6 H4 C(NH)NH2.HCl] | 130 ng/mL | 130 ng/mL | 5 ng/mL
7 | 0.02 × 10^6 L/mole | < 0.001 × 10^6 L/mole | 0.29 × 10^6 L/mole | 0.02 × 10^6 L/mole | 0.02 × 10^6 L/mole | CCS(=O)(=O)N[C@H](Cc1ccccc1)C(=O)N1CCC[C@H]1C(=O)NCCc1cccc(C(=N)N)c1.Cl [Example 27, EtSO2 -D-Phe-Pro-m-NHCH2 CH2 -C6 H4 C(=NH)NH2.HCl] | 27,800 ng/mL | 27,000 ng/mL | 1,940 ng/mL
8 | 0.000042 × 10^6 L/mole | 0.00087 × 10^6 L/mole | 0.44 × 10^6 L/mole | 0.0022 × 10^6 L/mole | 0.000042 × 10^6 L/mole | Cl.NC[C@H]1CC[C@H](CNC(=O)[C@@H]2CCCN2C(=O)[C@H](N)Cc2ccccc2)CC1 (relative stereo) [Example 12, D-Phe-Pro-NHCH2 -trans-4-(aminomethyl)cyclohexane.HCl] | – | – | 1,700 ng/mL
9 | < 0.001 × 10^6 L/mole | 0.000046 × 10^6 L/mole | 0.021 × 10^6 L/mole | 0.000056 × 10^6 L/mole | 0.00014 × 10^6 L/mole | Cl.Nc1ccc(CCNC(=O)[C@@H]2CCCN2C(=O)[C@H](N)Cc2ccccc2)cc1 [Example 14, D-Phe-Pro-P-NHCH2 CH2 C6 H4 NH2.HCl] | – | – | 21,000 ng/mL
10 | < 0.001 × 10^6 L/mole | 0.0060 × 10^6 L/mole | 0.064 × 10^6 L/mole | 0.0036 × 10^6 L/mole | 0.000068 × 10^6 L/mole | Cl.NCc1cccc(CNC(=O)[C@@H]2CCCN2C(=O)[C@H](N)Cc2ccccc2)c1 [Example 11, D-Phe-Pro-m-NHCH2 C6 H4 CH2 NH2.HCl] | – | – | 8,800 ng/mL
11 | 0.033 × 10^6 L/mole | 0.0046 × 10^6 L/mole | 2.1 × 10^6 L/mole | 0.24 × 10^6 L/mole | 0.0021 × 10^6 L/mole | CCOC(=O)N[C@H](Cc1ccccc1)C(=O)N1CCC[C@H]1C(=O)NCCCCN=C(N)N.Cl [Example 3, EtOCO-D-Phe-Pro-Agm.HCl] | – | – | 590 ng/mL
12 | < 0.001 × 10^6 L/mole | < 0.001 × 10^6 L/mole | – | – | – | CCS(=O)(=O)N[C@H](Cc1ccccc1)C(=O)N1CCC[C@H]1C(=O)NCc1cccc(C(=N)N)c1 [Example 24, EtSO2 -D-Phe-Pro-m-NHCH2 -C6 H4 C(=NH)NH2.HCl] | – | – | –
13 | 0.0037 × 10^6 L/mole | 0.00022 × 10^6 L/mole | 1.9 × 10^6 L/mole | 0.0081 × 10^6 L/mole | 0.0041 × 10^6 L/mole | N=C(N)NCCCNC(=O)[C@@H]1CCCN1C(=O)[C@H](N)Cc1ccccc1 [Example 7, D-Phe-Pro-NH(CH2)3 NHC(NH)NH2.HCl] | – | – | 490 ng/mL
14 | < 0.001 × 10^6 L/mole | – | – | – | – | N=C(N)NCc1ccc(CNC(=O)[C@@H]2CCCN2C(=O)[C@H](N)Cc2ccccc2)cc1 [Example 9, D-Phe-Pro-p-NHCH2 -C6 H4 CH2 NHC(NH)NH2.2TFA] | – | – | –
15 | 0.04 × 10^6 L/mole | 1.8 × 10^6 L/mole | 40 × 10^6 L/mole | – | 4.3 × 10^6 L/mole | HOOCCH2 -D-Phe-Pro(4-cis-isoamyl)-p-NHCH2 C6 H4 C(NH)NH2.HCl [Example 50] | 460 ng/mL | 420 ng/mL | 35 ng/mL

Row | Compound | Kass × 10^6 (L/mole) t-PA (t-PA) | Kass × 10^6 (L/mole) Plasmin (Human plasmin) | Kass × 10^6 (L/mole) Human Thrombin (Human Thrombin) | Kass × 10^6 (L/mole) Trypsin (Bovine trypsin) | Kass × 10^6 (L/mole) Xa (factor Xa) | Human Plasma Anticoagulation 2x Clotting time APTT (Human Plasma [1]) | Human Plasma Anticoagulation 2x Clotting time PT (Human Plasma [2]) | Human Plasma Anticoagulation 2x Clotting time TT (Human Plasma [3])
16 | O=C(O)CN[C@H](CC1CCCCC1)C(=O)N1CCC[C@H]1C(=O)NCC1CCNCC1 [Example 53, HO2 CCH2 -D-Cha-Pro-4-NHCH2 -piperidine.HCl] | < 0.001 × 10^6 L/mole | < 0.001 × 10^6 L/mole | – | – | – | – | – | –
